Laboratory results: patent US20140323501A1, “AMINO-PROPYLENE-GLYCOL DERIVATIVES, PREPARATION METHOD AND PHARMACEUTICAL COMPOSITION AND USE THEREOF” (INSTITUTE OF MATERIA MEDICA, CHINESE ACADEMY OF MEDICAL …, priority 2011, published 2014)

Assays:
[1] = tested on: lymphocyte proliferation / cytotoxic T lymphocytes; conditions: MLR and CTL; background, Fujita et al.; cited from earlier work
[2] = tested on: SD rat peripheral blood lymphocyte counts; assay: Effect of S1P1 receptor agonists on rat vein (peripheral) blood lymphocyte counts; format: in vivo; conditions: 10 mg/Kg intragastric; for LYM 0 h: before administration; for LYM 24 h: 24 h after administration; for compared with 0 h (%) 1 h / compared with 0 h (%) 2 h / compared with 0 h (%) 4 h / compared with 0 h (%) 8 h / compared with 0 h (%) 12 h / compared with 0 h (%) 24 h: lymphocyte count change vs 0 h; for Δ %: largest decrease of lymphocyte count vs 0 h
Procedure: 10 mg of drugs were measured and placed in a mortar. After 4 mL of 5‰ CMC-Na were added, homogenous suspension was prepared in the mortar (one drop of twain-80 was added to help dissolving). Dosage: 10 mg/Kg, dose volume: 0.4 mL/100 g, intragastric administration.
Every medicated group was assigned three rats.
After the experimental animals stable in the clean environment for 24 h, 10 μL of blood was withdrawn via tail vein and diluted into 2 mL of diluents quickly. […] Then the prepared drugs were administered intragastrically to the animals. […] The animals were killed after 24 h.

SD rat heart rate = assay: Effect of S1P1 receptor agonists on rat heart rate; format: in vivo; design: heart rate 0: unit not given beside the values; conditions: for HR delta %: (lowest heart rate postdose − pre-administration)/pre-administration; for heart rate 0.5 h / heart rate 1 h / heart rate 3 h / heart rate 6 h / heart rate 8 h / heart rate 24 h / heart rate pre-administration / heart rate 0: intragastric; for heart rate pre-administration: before administration; for heart rate 0: time 0, before administration
[3] = Table 1, 1 h after administration
[4] = Table 1, 2 h after administration
[5] = Table 1, 4 h after administration
[6] = Table 1, 8 h after administration
[7] = Table 1, 12 h after administration
[8] = Table 2, 0.5 h after administration
[9] = Table 2, 1 h after administration
[10] = Table 2, 3 h after administration
[11] = Table 2, 6 h after administration
[12] = Table 2, 8 h after administration
[13] = Table 2, 24 h after administration

## CCCCCCC(=O)CCCCCC/C=C/C[C@@H](O)[C@H](O)[C@@](N)(CO)C(=O)O [ISP-I, myriocin]
[1]
  activity relative to cyclosporine: 10 fold

## CCCCc1ccc(Oc2ccc(CCC(N)(CO)CO)cc2)cc1 [Syl926]
[2]; Table 1
  LYM 0 h: 5.17 ± 2.12 × 10^9/L
  LYM 24 h: 1.37 ± 0.31 × 10^9/L
  compared with 0 h (%) 24 h: 73.55%
[2]; [3]
  LYM 1 h: 3.40 ± 0.20 × 10^9/L
[2]; [4]
  LYM 2 h: 2.57 ± 0.84 × 10^9/L
[2]; [5]
  LYM 4 h: 2.33 ± 0.90 × 10^9/L
[2]; [6]
  LYM 8 h: 1.40 ± 0.79 × 10^9/L
[2]; [7]
  LYM 12 h: 1.33 ± 0.42 × 10^9/L
[2]; Table 1, 1 h
  compared with 0 h (%) 1 h: 34.19%
[2]; Table 1, 2 h
  compared with 0 h (%) 2 h: 50.32%
[2]; Table 1, 4 h
  compared with 0 h (%) 4 h: 54.84%
[2]; Table 1, 8 h
  compared with 0 h (%) 8 h: 72.90%
[2]; Table 1, 12 h
  compared with 0 h (%) 12 h: 74.19%
SD rat heart rate; Table 2
  HR delta %: 9.60%
  heart rate pre-administration: 352.85
SD rat heart rate; [8]
  heart rate 0.5 h: 361.91
SD rat heart rate; [9]
  heart rate 1 h: 346.80
SD rat heart rate; [10]
  heart rate 3 h: 327.09
SD rat heart rate; [11]
  heart rate 6 h: 340.82
SD rat heart rate; [12]
  heart rate 8 h: 318.55
SD rat heart rate; [13]
  heart rate 24 h: 354.80

## CCc1nc(-c2ccc(Oc3ccc(CCC(N)(CO)CO)cc3)cc2)co1 [Syl934]
[2]; Table 1
  LYM 0 h: 4.17 ± 0.40 × 10^9/L
  LYM 24 h: 1.33 ± 0.32 × 10^9/L
  compared with 0 h (%) 24 h: 68.00%
[2]; [3]
  LYM 1 h: 3.60 ± 0.69 × 10^9/L
[2]; [4]
  LYM 2 h: 2.47 ± 0.23 × 10^9/L
[2]; [5]
  LYM 4 h: 2.87 ± 0.55 × 10^9/L
[2]; [6]
  LYM 8 h: 1.83 ± 0.68 × 10^9/L
[2]; [7]
  LYM 12 h: 1.17 ± 0.49 × 10^9/L
[2]; Table 1, 1 h
  compared with 0 h (%) 1 h: 13.60%
[2]; Table 1, 2 h
  compared with 0 h (%) 2 h: 40.80%
[2]; Table 1, 4 h
  compared with 0 h (%) 4 h: 31.20%
[2]; Table 1, 8 h
  compared with 0 h (%) 8 h: 56.00%
[2]; Table 1, 12 h
  compared with 0 h (%) 12 h: 72.00%
SD rat heart rate; Table 2
  HR delta %: 2.4%
  heart rate pre-administration: 346.00
SD rat heart rate; [8]
  heart rate 0.5 h: 376.00
SD rat heart rate; [9]
  heart rate 1 h: 369.10
SD rat heart rate; [10]
  heart rate 3 h: 337.86
SD rat heart rate; [11]
  heart rate 6 h: 338.09
SD rat heart rate; [12]
  heart rate 8 h: 362.55
SD rat heart rate; [13]
  heart rate 24 h: 365.89

## CC(C)c1nc(-c2ccc(Oc3ccc(CCC(N)(CO)CO)cc3)cc2)co1 [Syl935]
[2]; Table 1
  LYM 0 h: 4.77 ± 0.21 × 10^9/L
  LYM 24 h: 1.73 ± 0.29 × 10^9/L
  compared with 0 h (%) 24 h: 63.64%
[2]; [3]
  LYM 1 h: 3.73 ± 1.23 × 10^9/L
[2]; [4]
  LYM 2 h: 2.70 ± 1.05 × 10^9/L
[2]; [5]
  LYM 4 h: 2.77 ± 0.72 × 10^9/L
[2]; [6]
  LYM 8 h: 2.10 ± 0.36 × 10^9/L
[2]; [7]
  LYM 12 h: 1.17 ± 0.31 × 10^9/L
[2]; Table 1, 1 h
  compared with 0 h (%) 1 h: 21.68%
[2]; Table 1, 2 h
  compared with 0 h (%) 2 h: 43.36%
[2]; Table 1, 4 h
  compared with 0 h (%) 4 h: 41.96%
[2]; Table 1, 8 h
  compared with 0 h (%) 8 h: 55.94%
[2]; Table 1, 12 h
  compared with 0 h (%) 12 h: 75.52%
SD rat heart rate; Table 2
  HR delta %: 15.90%
  heart rate pre-administration: 419.00
SD rat heart rate; [8]
  heart rate 0.5 h: 387.18
SD rat heart rate; [9]
  heart rate 1 h: 405.20
SD rat heart rate; [10]
  heart rate 3 h: 384.20
SD rat heart rate; [11]
  heart rate 6 h: 352.44
SD rat heart rate; [12]
  heart rate 8 h: 373.33
SD rat heart rate; [13]
  heart rate 24 h: 398.50

## NC(CO)(CO)CCc1ccc(Oc2ccc(-c3coc(C4CC4)n3)cc2)cc1 [Syl955]
[2]; Table 3
  LYM 0 h: 7.40 ± 2.18 ×10^9/L
  LYM 6 h: 8.33 ± 2.70 ×10^9/L
  LYM 23 h: 4.93 ± 1.07 ×10^9/L
  Δ %: 60.81%
[2]; Table 3, 1 h
  LYM 1 h: 6.27 ± 0.78 ×10^9/L
[2]; Table 3, 2 h
  LYM 2 h: 6.87 ± 0.90 ×10^9/L
[2]; Table 3, 4 h
  LYM 4 h: 6.83 ± 1.26 ×10^9/L
[2]; Table 3, 8 h
  LYM 8 h: 6.53 ± 1.42 ×10^9/L
[2]; Table 3, 12 h
  LYM 12 h: 2.90 ± 0.95 ×10^9/L
SD rat heart rate; Table 4
  Δ % = the percentage of change of rat heart rate before and after administration: 21.72%
  heart rate 0: 428.63
SD rat heart rate; Table 4, 0.5 h
  heart rate 0.5 h: 373.00
SD rat heart rate; Table 4, 1 h
  heart rate 1 h: 384.75
SD rat heart rate; Table 4, 3 h
  heart rate 3 h: 338.25
SD rat heart rate; Table 4, 6 h
  heart rate 6 h: 335.50
SD rat heart rate; Table 4, 8 h
  heart rate 8 h: 351.50
SD rat heart rate; Table 4, 24 h
  heart rate 24 h: 353.90

## CCCc1nc(-c2ccc(Oc3ccc(C(O)CC(N)(CO)CO)cc3)cc2)co1 (centres unmarked) [Syl961]
[2]; Table 3
  LYM 0 h: 7.90 ± 2.46 ×10^9/L
  LYM 6 h: 5.83 ± 1.88 ×10^9/L
  LYM 23 h: 2.63 ± 0.31 ×10^9/L
  Δ %: 66.67%
[2]; Table 3, 1 h
  LYM 1 h: 8.57 ± 2.55 ×10^9/L
[2]; Table 3, 2 h
  LYM 2 h: 6.40 ± 0.98 ×10^9/L
[2]; Table 3, 4 h
  LYM 4 h: 6.33 ± 2.25 ×10^9/L
[2]; Table 3, 8 h
  LYM 8 h: 3.93 ± 1.78 ×10^9/L
[2]; Table 3, 12 h
  LYM 12 h: 3.67 ± 1.68 ×10^9/L
SD rat heart rate; Table 4
  Δ % = the percentage of change of rat heart rate before and after administration: 11.64%
  heart rate 0: 389.75
SD rat heart rate; Table 4, 0.5 h
  heart rate 0.5 h: 382.56
SD rat heart rate; Table 4, 1 h
  heart rate 1 h: 364.33
SD rat heart rate; Table 4, 3 h
  heart rate 3 h: 379.45
SD rat heart rate; Table 4, 6 h
  heart rate 6 h: 344.36
SD rat heart rate; Table 4, 8 h
  heart rate 8 h: 363.08
SD rat heart rate; Table 4, 24 h
  heart rate 24 h: 363.27

## CC(C)c1nc(-c2ccc(Oc3ccc(C(O)CC(N)(CO)CO)cc3)cc2)co1 (centres unmarked) [Syl962]
[2]; Table 3
  LYM 0 h: 8.03 ± 1.15 ×10^9/L
  LYM 6 h: 3.63 ± 0.38 ×10^9/L
  LYM 23 h: 2.43 ± 0.59 ×10^9/L
  Δ %: 69.70%
[2]; Table 3, 1 h
  LYM 1 h: 5.60 ± 0.90 ×10^9/L
[2]; Table 3, 2 h
  LYM 2 h: 5.83 ± 1.54 ×10^9/L
[2]; Table 3, 4 h
  LYM 4 h: 6.27 ± 1.42 ×10^9/L
[2]; Table 3, 8 h
  LYM 8 h: 2.67 ± 0.67 ×10^9/L
[2]; Table 3, 12 h
  LYM 12 h: 3.10 ± 0.56 ×10^9/L
SD rat heart rate; Table 4
  Δ % = the percentage of change of rat heart rate before and after administration: 13.58%
  heart rate 0: 390.00
SD rat heart rate; Table 4, 0.5 h
  heart rate 0.5 h: 397.13
SD rat heart rate; Table 4, 1 h
  heart rate 1 h: 374.88
SD rat heart rate; Table 4, 3 h
  heart rate 3 h: 358.58
SD rat heart rate; Table 4, 6 h
  heart rate 6 h: 343.63
SD rat heart rate; Table 4, 8 h
  heart rate 8 h: 337.00
SD rat heart rate; Table 4, 24 h
  heart rate 24 h: 331.89

## NC(CO)(CO)CC(O)c1ccc(Oc2ccc(-c3coc(C4CC4)n3)cc2)cc1 (centres unmarked) [Syl963]
[2]; Table 3
  LYM 0 h: 6.90 ± 0.95 ×10^9/L
  LYM 6 h: 4.57 ± 1.29 ×10^9/L
  LYM 23 h: 2.43 ± 0.91 ×10^9/L
  Δ %: 64.73%
[2]; Table 3, 1 h
  LYM 1 h: 4.67 ± 1.50 ×10^9/L
[2]; Table 3, 2 h
  LYM 2 h: 5.07 ± 2.10 ×10^9/L
[2]; Table 3, 4 h
  LYM 4 h: 6.67 ± 0.81 ×10^9/L
[2]; Table 3, 8 h
  LYM 8 h: 4.13 ± 0.84 ×10^9/L
[2]; Table 3, 12 h
  LYM 12 h: 4.20 ± 2.52 ×10^9/L
SD rat heart rate; Table 4
  Δ % = the percentage of change of rat heart rate before and after administration: 4.58%
  heart rate 0: 395.50
SD rat heart rate; Table 4, 0.5 h
  heart rate 0.5 h: 388.38
SD rat heart rate; Table 4, 1 h
  heart rate 1 h: 378.36
SD rat heart rate; Table 4, 3 h
  heart rate 3 h: 377.36
SD rat heart rate; Table 4, 6 h
  heart rate 6 h: 366.88
SD rat heart rate; Table 4, 8 h
  heart rate 8 h: 362.50
SD rat heart rate; Table 4, 24 h
  heart rate 24 h: 369.05

## CCc1nc(-c2ccc(Sc3ccc(CCC(N)(CO)CO)cc3)cc2)co1 [Syl974]
[2]; Table 3
  LYM 0 h: 6.55 ± 0.21 ×10^9/L
  LYM 6 h: 5.77 ± 0.40 ×10^9/L
  LYM 23 h: 4.47 ± 1.36 ×10^9/L
  Δ %: 65.9%
[2]; Table 3, 1 h
  LYM 1 h: 4.63 ± 0.61 ×10^9/L
[2]; Table 3, 2 h
  LYM 2 h: 5.27 ± 1.27 ×10^9/L
[2]; Table 3, 4 h
  LYM 4 h: 5.20 ± 0.61 ×10^9/L
[2]; Table 3, 8 h
  LYM 8 h: 4.67 ± 0.61 ×10^9/L
[2]; Table 3, 12 h
  LYM 12 h: 2.23 ± 0.59 ×10^9/L
SD rat heart rate; Table 4
  Δ % = the percentage of change of rat heart rate before and after administration: 4.81%
  heart rate 0: 381.50
SD rat heart rate; Table 4, 0.5 h
  heart rate 0.5 h: 382.63
SD rat heart rate; Table 4, 1 h
  heart rate 1 h: 388.00
SD rat heart rate; Table 4, 3 h
  heart rate 3 h: 396.19
SD rat heart rate; Table 4, 6 h
  heart rate 6 h: 368.56
SD rat heart rate; Table 4, 8 h
  heart rate 8 h: 364.11
SD rat heart rate; Table 4, 24 h
  heart rate 24 h: 363.13
